In patent US20250324972A1, “METHOD OF CONTROLLING NEMATODES” (priority 2022, published 2025):

Columns and labels:
[1] = test system: Tomatoes of Aryman variety; experiment: Open field trial on tomato: phytotoxicity evaluation; assay type: in vivo
Method: An open field trial was conducted. Tomatoes of Aryman variety was used. The soil type was sandy loam.
Fertilizers were applied prior to bed formation. Plots were formed, with a total area of 25 m^2 per plot. Drip lines were laid in the plot beds (plot beds occupy half the field). Treatments were arranged in a randomized complete block design with two replications.
Fluensulfone emulsifiable concentrate (Nimitz® 480 EC) was used for the fluensulfone treatments. Additionally, comparative nematicides fluopyram (as Fluopyram® 500 SC) and carbofuran (as Carbofuran® 3% CG), were tested. Untreated control plots were formed for comparison.
In Table 1, time of application is expressed by DAT, which indicates the number of days relative to the date of planting.
Treatments 2 and 3 (of the invention): fluensulfone in the form of an emulsifiable concentrate (Nimitz® 480 EC) was applied at the day of planting (DAT=0), followed by a post-plant application twenty five days later (DAT=25). The application method consisted of the following steps. First, the soil was wetted by irrigation water. Then, at the day of planting, appropriate amounts of Nimitz® 480 EC were diluted in water and applied to achieve the application rates tabulated in Table 1. It was repeated on DAT=25. […]
Phytotoxicity was evaluated on DAT=7, 21, 32, and 46. […]

[2] = test system: root-knot nematode; experiment: Open field trial on tomato: root galling assessed with the root galling index (Bridge and Page chart); assay type: in vivo
Description: The rating method is based on assigning an integer number in the interval from 0 (no knots on the roots) to 10 (all roots severely knotted indicative of plant death).
Treatments 2 and 3 (of the invention): fluensulfone in the form of an emulsifiable concentrate (Nimitz® 480 EC) was applied at the day of planting (DAT=0), followed by a post-plant application twenty five days later (DAT=25). The application method consisted of the following steps. First, the soil was wetted by irrigation water. Then, at the day of planting, appropriate amounts of Nimitz® 480 EC were diluted in water and applied to achieve the application rates tabulated in Table 1. […]
Root galling was assessed in the open-field trial, on DAT=25, 50, and 75, using the root galling index. […]

SMILES: O=S(=O)(CCC(F)=C(F)F)c1ncc(Cl)s1 [fluensulfone, 5-chloro-2-(3,4,4-trifluoro-but-3-ene-1-sulfonyl)-1,3-thiazole]
- Phytotoxicity ([1]; entire range of application rates tested, evaluated on DAT=7, 21, 32, and 46): No phytotoxicity was observed
- average root galling indexes (RGI) ([2]; application initiated on the day of planting/transplanting, even seventy days after planting/transplanting): below 3
- root galling index ([2]; method of the invention, at least over 50 days and even 75 days after planting): below 2

SMILES: O=C(NCCc1ncc(C(F)(F)F)cc1Cl)c1ccccc1C(F)(F)F [fluopyram]
- Phytotoxicity score ([1]; evaluated on DAT=7, 21, 32, and 46, fluopyram 500 SC 0 DAT @ 1250 ml/ha): 65
